Measured values from paper PMC5704959 (ACS chemical biology, 2016).

Target: human Siglec-9 (hSiglec-9-Fc, hSiglec-9) (Homo sapiens, UniProt Q9Y336)
Assay: glycan microarray, fluorescence
Format: binding
Conditions: glycan immobilised on epoxide slide; PBS pH 7.4, RT, 2 h

Chain of human Siglec-9 (hSiglec-9-Fc, hSiglec-9) (Q9Y336 18-348 limits assumed): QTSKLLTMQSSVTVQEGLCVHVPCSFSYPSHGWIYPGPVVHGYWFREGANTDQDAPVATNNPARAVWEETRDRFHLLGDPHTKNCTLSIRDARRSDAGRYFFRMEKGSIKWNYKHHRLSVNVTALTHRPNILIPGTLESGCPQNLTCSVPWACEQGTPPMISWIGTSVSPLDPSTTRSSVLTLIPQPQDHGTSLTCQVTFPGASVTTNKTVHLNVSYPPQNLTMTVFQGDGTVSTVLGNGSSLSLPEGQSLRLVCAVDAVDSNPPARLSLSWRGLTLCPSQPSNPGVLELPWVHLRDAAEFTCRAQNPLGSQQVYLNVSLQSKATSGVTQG

SMILES | glycan microarray, fluorescence (RFU)
CC(=O)N[C@H]1[C@H]([C@H](O)[C@H](O)COC(C)=O)O[C@@](O[C@H]2[C@@H](O)[C@@H](CO)O[C@@H](O[C@H]3[C@H](O)[C@@H](O)[C@H](OCCCN)O[C@@H]3CO)[C@@H]2O)(C(=O)O)C[C@@H]1O [Neu5,9Ac2α3Galβ4GlcβProNH2] | observable binding to both Neu5Ac9NAc (black column) and Neu5,9Ac2 (grey column)-containing glycans
CC(=O)N[C@H]1[C@H]([C@H](O)[C@H](O)CO)O[C@@](O[C@H]2[C@@H](O)[C@@H](CO)O[C@@H](O[C@H]3[C@H](O)[C@@H](O)[C@H](OCCCN)O[C@@H]3CO)[C@@H]2O)(C(=O)O)C[C@@H]1O [Neu5Acα3Galβ4GlcβProNH2] | hSiglec-9 prefers binding to Neu5Ac-glycan without 9-modification at sialic acid
